Measured values: patent publication US20090048157A1, “USE OF ORGANIC COMPOUNDS” (priority 2004, published 2009)

Tests used:
Type in all cases: in vivo, human
[1] = tested on: N-MID Osteocalcin (bone formation marker); experiment: N-MID Osteocalcin ELISA response to oral SCT in postmenopausal women, clinical trial; conditions: 0.15-2.5 mg daily or 1.0 mg every other day, compared with placebo
Description: The N-MID® Osteocalcin ELISA (Nordic Bioscience Diagnostics A/S, cat. no. 3OSC4000) is an enzyme innuosorbent assay for quantitative assessment of bone formation, and has been cleared by the FDA. It is based upon the application of two highly specific monoclonal antibodies (Mabs) against human osteocalcin. An antibody recognizing the midregion (amino acids 20-29) is used as the capture antibody and for detection a peroxidase conjugated antibody recognizing the N-terminal region (amino acids 10-16) is used. In addition to intact osteocalcin (amino acid 1-49) the N-terminal-Mid fragment (amino acids 1-43) is also detected. […] Finally, the absorbance is measured.
(§1) The response of serum CTX-I and N-MID® Osteocalcin to SCT in postmenopausal women is examined in a multi-center, randomised, double-blind, placebo-controlled, dose-ranking clinical trial including 277 study participants aged 55-85 years (the study has been described in detail in Tank{acute over (0)} et al., J Bone Miner Res., in print). The study participants receives active treatment (daily doses of 0.15, 0.4, 1.0, or 2.5 mg or 1.0 mg every other day) or placebo for three months and serum CTX-I as well as N-MID® Osteocalcin are measured frequently during a 24-hours period before drug administration and after one and three months.

[2] = tested on: Serum CTX-I (bone resorption marker); experiment: Serum CTX-I (CrossLaps) after single doses of oral or iv salmon calcitonin in male volunteers; conditions: eight male volunteers, oral and iv SCT
Description: Serum CTX-I, or CrossLaps® (Nordic Bioscience Diagnostics A/S, cat. no. 4CRL4000) is an enzyme-immunoassay for quantitative assessment of bone resorption, and has been cleared by the FDA. It is based on two highly specific monoclonal antibodies against the amino acid sequence of EKAHD-β-GGR originating from the C-telopeptide of type I collagen. The aspartic acid residue (D) is β-isomerized. Standards, control, or unknown serum samples are pipetted into the appropriate microtitre wells coated with streptavidin, followed by application of a mixture of a biotinylated antibody and a peroxidase-conjugated antibody. Then, a complex between the CTX antigens, biotinylated antibody and peroxidase-conjugated antibody is generated, and this complex binds to the streptavidin surface via the biotinylated antibody. Following the one-step incubation at room temperature, the wells are emptied and washed. A chromogenic substrate is added and the colour reaction is stopped with sulfuric acid. Finally, the absorbance is measured.
The effect of oral salmon calcitonin (SCT) on the serum levels of CTX-I is investigated by randomising study participants (eight male volunteers) to receive three. single doses of SCT, a verum intravenous infusion of SCT or placebo in a five-period cross-over design (the study is described in detail in Buchlin et al., J Bone Miner Res., (2002); 17:1478-1485).

[3] = tested on: Serum CTX-I (bone resorption marker); experiment: Serum CTX-I response to oral SCT in postmenopausal women, clinical trial; conditions: after the first dose, 0.15, 0.4, 1.0 or 2.5 mg, dose-dependent, compared with placebo
Description: Serum CTX-I, or CrossLaps® (Nordic Bioscience Diagnostics A/S, cat. no. 4CRL4000) is an enzyme-immunoassay for quantitative assessment of bone resorption, and has been cleared by the FDA. It is based on two highly specific monoclonal antibodies against the amino acid sequence of EKAHD-β-GGR originating from the C-telopeptide of type I collagen. The aspartic acid residue (D) is β-isomerized. Standards, control, or unknown serum samples are pipetted into the appropriate microtitre wells coated with streptavidin, followed by application of a mixture of a biotinylated antibody and a peroxidase-conjugated antibody. […] Finally, the absorbance is measured.
as §1

Substance: salmon calcitonin [SCT]
- Changes of N-MID Osteocalcin [1]: non-significant
- Time to nadir of serum CTX-I post-treatment [2]: 2 to 4 h
- Time to return of serum CTX-I to pre-treatment levels [2]: 24 h
- Serum CTX-I: inhibition of bone resorption ([2]; cross-over vs placebo): marked dose-dependent inhibition of bone resorption
- Serum CTX-I decrease from baseline [3]: −60.8 to −81.8%
